Values of other authors in patent US20130108552A1, “NEAR-IR INDOCYANINE GREEN DOPED MULTIMODAL SILICA NANOPARTICLES AND METHODS FOR MAKING THE SAME” (UNIVERSITY OF FLORIDA RESEARCH FOUNDATION INC., priority 2010, published 2013).

Key:
[1] = tested on: nonspecific plasma proteins
[2] = in H2O

- critical micelle concentration [2]: about 0.32 mg/mL
Compound: CC1(C)C(/C=C/C=C/C=C/C=C2\N(CCCCS(=O)(=O)O)c3ccc4ccccc4c3C2(C)C)=[N+](CCCCS(=O)(=O)[O-])c2ccc3ccccc3c21 [ICG, indocyanine green]
- binding to nonspecific plasma proteins [1]: strongly bind to nonspecific plasma proteins
